This is an account of results in PMC12370193, “An L-fucose-responsive transcription factor cross-regulates the expression of a diverse array of carbohydrate-active enzymes in Trichoderma reesei” (PLOS Genetics, 2025).

The target in the assay is T1, FDH1 (Trichoderma reesei, UniProt G0RGU7).
T1 construct: gene TRIREDRAFT_60517; full-length re-annotated 302-aa protein (database gene model may differ; S1 Data); codon-optimized; pET-32a(+), E. coli BL21(DE3); N-terminal His6 tag
The assay is described as follows: NADH formation at […] nm, initial rates, Hill equation fit. The class given is biochemical. Conditions: NAD+ co-substrate (0.5 mM in standard assay), 50 mM Tris-HCl pH 9.0, 30 °C.

T1 sequence (G0RGU7 entry or part of it): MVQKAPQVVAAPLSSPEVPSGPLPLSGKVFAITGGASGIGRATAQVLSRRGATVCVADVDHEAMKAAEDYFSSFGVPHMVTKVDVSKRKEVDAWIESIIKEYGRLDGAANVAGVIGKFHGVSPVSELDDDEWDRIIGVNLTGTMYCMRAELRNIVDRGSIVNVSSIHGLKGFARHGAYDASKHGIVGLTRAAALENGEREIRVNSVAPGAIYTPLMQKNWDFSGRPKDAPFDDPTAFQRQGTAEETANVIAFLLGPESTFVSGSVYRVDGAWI

As usually defined, the Km is the substrate concentration at which the rate is half of its maximum. As for `C[C@@H]1OC(O)[C@@H](O)[C@H](O)[C@@H]1O` (stereo partly drawn) [L-fucose, 6-deoxy-L-galactose], the Km came to 546 µM.
